Laboratory results taken from patent US20230295058A1, “SYSTEMS AND METHODS FOR GENERATION OF HYPERPOLARIZED COMPOUNDS USING PARAHYDROGEN” (NVISION IMAGING TECHNOLOGIES GMBH, priority 2020, published 2023).
Read-outs that look alike come from different tables or passages of the source.

Legend:
[1] = cited from earlier work
variety of cell lines = assay: cytotoxicity of clean fumarate samples following precipitation; format: cell-based; conditions: precipitated, washed and redissolved samples, even at high concentrations (FIG. 10)
Procedure: FIG. 10 depicts the results of cytotoxicity experiments performed using samples of precipitated, washed and redissolved sodium fumarate generated in accordance with disclosed embodiments
The clean fumarate samples following precipitation were tested for cytotoxicity using a variety of cell lines. FIG. 10 depicts the result of the cell line experiments.

Row | SMILES | maximal mole fraction in n-heptane ([1]; 14.8° C.) | maximal mole fraction in n-heptane ([1]; −29.2° C.) | cytotoxicity (variety of cell lines)
1 | CC(=O)O [acetic acid] | 0.935 | 0.02 | –
2 | O=C([O-])/C=C/[13C](=O)[O-].[Na+].[Na+] [sodium fumarate, sodium fumarate-1-^13C] | – | – | No toxicity was visible
